For twelve molecules, EC50 and IC50 results are on record in patent US6452028B1, “Vitamin D3 analogs” (Hoffmann-La Roche Inc., priority 1996, dated 2002).

As a reminder, the IC50 is the concentration that inhibits the measured activity by half.

In assay [1] the test system is HL-60 cells. In words: HL-60 cell differentiation (NBT reduction). The format is cell-based. The following applies: concentration leading to 50% of maximal differentiation achieved with 100-1000 nM calcitriol, 3 days, read-out: ED50 (the source's name). The protocol: HL-60 Cell Differentiation
The induction of differentiation of HL-60 cells was assayed by measuring their oxidative burst potential via the reduction of nitrobluetetrazolium (NBT).
HL-60 cells (30,000 cells/90 μl of RPMI/supplemented medium) were seeded into flat-bottomed microtiter wells. Immediately after seeding, 10 μl of test compounds diluted in supplemented RPMI medium were added to the wells at the same time to yield final concentrations between 10^−11 and 10^−6 M (starting from stock solutions of 10^−2 M in ethanol stored at −20° C. and protected from light).

Assay [2] concerns MCF-7 breast carcinoma cells. The assay is described as follows: Antiproliferative activity in MCF-7 breast carcinoma cells (MTT). The following applies: inhibition of cell growth, day 3 to 7 post drug addition, Reed and Muench formula. It counts as cell-based.
For assay [3], the system named is HaCaT cell line. The assay is described as follows: Inhibition of keratinocyte proliferation (3H-thymidine uptake). The format is cell-based, human. The following applies: 3H-thymidine incorporation after 6 days of culture in presence of the test compound.
Assay [4] relates to T47-D breast carcinoma cells. The assay is described as follows: Antiproliferative activity in T47-D breast carcinoma cells (MTT). The following applies: inhibition of cell growth, day 3 to 7 post drug addition, Reed and Muench formula. The format is cell-based.

Consider `C=C1C(=CC=C2CCCC3(C)C(C(C)C/C=C\C(O)(C(F)(F)F)C(F)(F)F)=CCC23)CC(O)CC1O` (stereo not drawn) [1,25-Dihydroxy-16,23Z-diene-26,27-hexafluoro-20-epi-cholecalciferol], for which the EC50 in assay [1] was 2.3 nM.

Molecule `C=C1C(=CC=C2CCCC3(C)C(C(C)CC#CC(O)(C(F)(F)F)C(F)(F)F)=CCC23)CC(O)CC1F` (stereo not drawn) [1α-Fluoro-25-hydroxy-16-ene-23-yne-26,27-hexafluoro-20-epicholecalciferol] yielded an IC50 in assay [2] of 11 nM.

Consider `C=C1C(=CC=C2CCCC3(C)C(C(C)CCCC(C)(C)O)=CCC23)CC(O)CC1O` (stereo not drawn) [1,25-Dihydroxy-16-ene-20-epi-cholecalciferol], for which the EC50 in assay [1] amounted to 2.5 nM. Moreover, in assay [3], the IC50 worked out at 4 nM.

In turn, `CCC(O)(C#CCC(C)C1=CCC2C(=CC=C3CC(O)CC(O)C3)CCCC12C)CC` (stereo not drawn) [1,25-Dihydroxy-16-ene-23-yne-26,27-bishomo-19-nor-20-epi-cholecalciferol] displayed an IC50 in assay [2] of 12 nM.

For `C=C1C(=CC=C2CCCC3(C)C(C(C)CC#CC(C)(C)O)=CCC23)CC(O)CC1O` (stereo not drawn) [1,25-Dihydroxy-16-ene-23-yne-20-epi-cholecalciferol], the EC50 in assay [1] was 15 nM. Besides, the IC50 in assay [3] is 93 nM.

As to `C=C1C(=CC=C2CCCC3(C)C(C(C)C/C=C\C(O)(C(F)(F)F)C(F)(F)F)=CCC23)CC(O)CC1F` (stereo not drawn) [1α-Fluoro-25-hydroxy-16,23Z-diene-26,27-hexafluoro-20-epi-cholecalciferol], the EC50 in assay [1] was determined as 20 nM.

`C=C1/C(=C\C=C2/CCC[C@]3(C)[C@@H]([C@H](C)CCCC(C)(C)O)CC[C@@H]23)C[C@@H](O)C[C@@H]1O` [1,25-Dihydroxy-cholecalciferol, reference compound]: the IC50 in assay [3] (Homo sapiens, HaCaT) is 55 nM.

Take `C=C1/C(=C\C=C2/CCC[C@]3(C)C([C@@H](C)CC#CC(O)(C(F)(F)F)C(F)(F)F)=CC[C@@H]23)C[C@@H](O)C[C@@H]1O` [1,25-Dihydroxy-16-ene-23-yne-26,27-hexafluoro-20-epi-cholecalciferol]: the EC50 in assay [1] is 2 nM. The figures for the IC50 in assay [4], in assay [2] and in assay [3] were 6.7 nM, 0.95 nM and 50 nM, respectively.

With “1,25-Dihydroxy-16,23Z-diene-26,27-hexafluoro-20-epi-19-nor-cholecalciferol”, the EC50 in assay [1] was determined as 4.5 nM.

As for `C=C1/C(=C\C=C2/CCC[C@]3(C)C([C@@H](C)C/C=C/C(O)(CC)CC)=CC[C@@H]23)C[C@@H](O)C[C@@H]1F` [1α-Fluoro-25-hydroxy-16-23E-diene-26,27-bishomo-20-epi-cholecalciferol], the midpoint of inhibition in assay [2], the IC50, lay at 30 nM.

`C=C1/C(=C\C=C2/CCC[C@]3(C)C([C@@H](C)CC#CC(O)(CC)CC)=CC[C@@H]23)C[C@@H](O)C[C@@H]1O` [1,25-Dihydroxy-16-ene-23-yne-26,27-bishomo-20-epi-chole-calciferol] had an IC50 in assay [2] of 11 nM.

The molecule `C=C1/C(=C\C=C2/CCC[C@]3(C)C([C@@H](C)C/C=C/C(O)(C(F)(F)F)C(F)(F)F)=CC[C@@H]23)C[C@@H](O)C[C@@H]1F` [1α-Fluoro-25-hydroxy-16,23E-diene-26,27-hexafluoro-20-epi-cholecalciferol] came in with an IC50 in assay [2] of 9 nM.
